Laboratory results taken from US11505525B2, “Branched discrete PEG constructs” (Quanta BioDesign, Ltd., priority 2011, dated 2022).

Legend:
[1] = test system: GLP-1 receptor; conditions: cited from earlier work
[2] = mouse, in vivo
Excerpt: In a different study, PK data was taken on normal athymic mice injected with: mCC49 Fab′-dPEG12-Tris(dPEG12-Tris(m-dPEG11)3)3, mCC49 Fab′-dPEG12-Tris(dPEG24-acid)3, mCC49 Fab′-dPEG12-Tris(m-dPEG24)3, and mCC49 Fab′-dPEG12-Tris(dPEG12-acid)3.
PK data was taken with additional normal female athymic mice as follows: […]

[3] = test system: TAG-72; assay: Competition affinity assay of CC49-Fab′-branched dPEGs; format: binding; conditions: Fab′-NEM defined as 1.0; single aliquots
Procedure: A competition assay was run with a series of CC49-Fab′-dPEGs. In this run, single aliquots of each compound were assayed. The affinity constant of Fab′-NEM is defined as 1.0. From the data, it is that clear that the Relative Affinity Constant, which is a measure of how well the Fab′ binds to its molecular target, is minimally impacted by conjugation to branched dPEG products.
A competition assay was run with a series of CC49-Fab′-branched dPEGs. In this run, single aliquots of each compound were assayed. The affinity constant of Fab′-NEM is defined as 1.0, and the binding constants of the branched dPEG conjugates are as follows: […]

[4] = test system: implanted tumors; assay: Fused CT/PET imaging of tumor-bearing nude mice with 124I-labelled CC49 Fab′ conjugates; format: in vivo
Procedure: Fused PET/CT images of mice were taken of different antibody conjugates to determine their ability to localize implanted tumors (see Examples below). In particular, CC49 Fab′-S-NEM control was compared to CC49 Fab′-dPEG12-Tris(dPEG24 carboxyl)3, the CC49 Fab′ MoAb modified with one of the disclosed branched dPEGs containing terminal carboxyl groups.
• 1. sterilized, de-pyrogenated glass reaction vessel coated with IODO-GEN™ (SOP 310.0) (5-10 ml serum vials or 13 mm×100 mm test tubes) • 2. sterile, pyrogen-free phosphate buffer, 0.1 M. pH 7.2 • 3. sterile, pyrogen-free phosphate buffered saline • 4. 1 Sephadex G-25M (PD-10 disposable) column with tip • 5. Iodine-124 medium concentration, high activity, sodium iodide for protein iodination in pH=9.5, concentration—100 mCi/ml (IBA Molecular, Dulles VA) • 6. protein to be radiolabeled • 7. 10 sterilized, de-pyrogenated glass test tubes—12×75 mm • 8. 1 sterile Millex-GV 0.22 micron, 13 mm low protein binding filter unit (Millipore—cat. no: SLGV0130S) • 9. microliter pipettes (Eppendorf) • 10. sterilized plastic tips for microliter pipette • 11. parafilm—2 cm.×2 cm. • 12. close calibrator • 13. fume hood • 14. dry and wet radioactive waste containers • 15. disposable gloves • 16. lead shielding and lead containers for reaction vessel and test tubes • 17.2-5 ml. sterile, pyrogen-free syringes with needles • 18.1-3.5 in. spinal needle. Procedure • (Note: the specific activity desired will determine the quantities of protein and Iodine-124 used below.) • I. Place the desired amount of protein into the IODO-GEN™ reaction vessel. • 2. Add the desired amount of iodine-124 into the IODO-GEN™ reaction vessel. • 3. Add 50 μl of 0.1M, 7.2 pH phosphate buffer solution to reaction vessel. • 4. Cover the reaction vessel with parafilm. • 5. Incubate reaction vessel for 20 minutes with occasional swirling. • 6. Place reaction vessel into dose calibrator to determine radioactivity added. • 7. Stop reaction by removing reaction mixture from reaction vessel and placing mixture onto gel bed of Sephadex G-25M column (this separates unbound Iodine-124). • 8. Allow mixture to elute through column. (Note: the iodinated protein is collected from the column after the void volume has been eluted—approximately 2 ml). • 9. Place 1 ml phosphate buffered saline onto gel bed of Sephadex G-25M column and allow to elute through column. • 10. Place 4 ml phosphate buffered saline onto gel bed of Sephadex G-25M column and allow to elute through column. (Note: begin to collect Iodinated protein if you have not done so already). • 11. Collect fractions of 10 drops of eluted iodinated protein—total of 10 fractions. • 12. Assay the 10 fractions using the dose calibrator. • 13. Collect the fractions, which have the highest radioactivity and pool them together in a sterile, pyrogen-free syringe. • 14. Assay syringe of the collected iodinated fractions. • 15. Filter radiolabeled protein using Millex-GV 0.22 micron low protein binding filter unit into a sterile pyrogen-free syringe. • 16. Assay syringe of the filtered radiolabeled protein. • 17. Remove a sample for quality assurance procedures. Description of Animals • a. Female nude mice background, 4-5 weeks in age, were used in this project. For every 7 animals injected with tumors, 4 will actually show tumors in the useful size range. • b. The nude mice will receive 6×10^6 cells subcutaneously in 0.1 mL volumes in order to initiate tumors. • c. Nude mice are received on a routine basis from commercial sources. The mouse colony is routinely surveyed for adventitious agents by serological and histopathological procedures. Upon arrival, the mice are conditioned for up to one week and then moved into an experimental protocol. • d. The anesthetized mice are injected subcutaneously or intradermally into the flank area. For this injection, the mouse is held by a fold in the skin at the back and a 25G needle inserted through the skin. […]

Substance: Lys^27 Exendin-4 linear polymeric PEG 1 kD: "the Lys^27 in the Exendin-4 is modified with linear polymeric PEGs of MW, 1, 2 and 5 kD"; binding almost the same for 1 kD
- binding of Lys^27-PEGylated Exendin-4, times lower [1]: almost the same

Substance: m CC49 Fab′-dPEG12-Tris(dPEG12-Tris(m-dPEG11)3)3 [Fab-dPEG-D]
- clearance over time [2]: least rapid clearance

Substance: CC49 Fab′-S-MAL-dPEG12-Tris(-dPEG12-CO2H)3 [CC49 Fab′-dPEG12-Tris(dPEG12 acid)3 (B)]
- Relative Affinity Constant (Ka) [3]: 0.3

Substance: CC49 Fab′-S-MAL-dPEG12-Tris(-dPEG12-Tris(m-dPEG11)3)3
- Relative Affinity Constant (Ka) [3]: 0.4

Substance: CC49 Fab′-S-MAL-dPEG12-Tris(m-dPEG24)3 [CC49 Fab′-dPEG12-Tris(m-dPEG24)3]
- fused CT/PET image: tumors and background ([4]; 24 hours post injection): little background
- fused CT/PET image: tumors and background ([4]; 72 hours post injection): little background

Substance: two Exendin-4 molecules: "two Exendin-4 molecules in a very congested branching format"; "the bis-Exendin-4 without the large polymeric PEG"
- increase in the binding ([1]; two Exendin-4 molecules in branching format): 3.5 times

Substance: CC49 Fab′-S-MAL-dPEG12-Tris(-dPEG24-CO2H)3 [CC49 Fab′-dPEG12-Tris(dPEG24 acid)3]
- fused CT/PET image: tumors and background ([4]; 5 hours post injection): good imaging of the tumors with some background evident
- fused CT/PET image: tumors and background ([4]; 24 hours post injection): the tumors were well imaged with continuing diminution of background
- fused CT/PET image: tumors and background ([4]; 48 hours post injection): virtually no background is evident
- fused CT/PET image: tumors and background ([4]; 72 hours post injection): virtually no background is evident

Substance: 20 kD polymer PEG attached with two Exendin-4 molecules: "the 20 kD polymer PEG attached with two Exendin-4 molecules"; binding reduced approximately 67 times by the "shielding effect" of the linear PEG
- reduction of binding relative to bis-Exendin-4 without the polymeric PEG [1]: approximately 67 times

Substance: Lys^27 Exendin-4 linear polymeric PEG 2 kD: "the Lys^27 in the Exendin-4 is modified with linear polymeric PEGs of MW, 1, 2 and 5 kD"; approximately 12 times lower binding
- binding of Lys^27-PEGylated Exendin-4, times lower [1]: approximately 12 times

Substance: Lys^27 Exendin-4 linear polymeric PEG 0.5 kD: "the Lys^27 in the Exendin-4 is modified with linear polymeric PEGs of MW, 1, 2 and 5 kD"; approximately 37 times lower binding, printed "0.5 kD"
- binding of Lys^27-PEGylated Exendin-4, times lower [1]: ~37 times
